# Reference: patent US4556560A, “Methods for the treatment and prophylaxis of diaper rash and diaper dermatitis” (The Procter & Gamble Company, priority 1983, dated 1985)
# Tests used:
# [1] = system: primary skin irritation caused by prolonged contact of a urine/feces mixture under occluded conditions; assay: Hairless mouse patch test: feces/urea homogenate patched with lipase-inhibiting agent solution (Examples I-V); format: in vivo, hairless mice
# From the text: (§1) This method may be used to determine the utility and effect of lipase-inhibiting agents, or compositions containing these agents, on primary skin irritation caused by prolonged contact of a urine/feces mixture under occluded conditions.
# (§2) Male, hairless mice at 8-12 weeks of age are used for the study. The animals are housed individually in plastic shoe box cages for the experiments, and fed Purina® Rodent Laboratory Chow and tap water ad libitum. Mice are assigned numbers during each study which are posted on each cage.
# (§3) The mice are cared for, and the room conditions maintained following acceptable animal study conditions.
# (§4) Patch treatment compositions are prepared by taking the fecal material to be tested and mixing it with a 2% urea solution at a weight:weight ratio of 1:4 feces:urea. 0.1 ml of the lipase-inhibiting agent solution or composition of the desired concentration is patched along with 0.375 ml of the urine/feces mixture. Patches for the mice are prepared by saturating an absorbent material (such as cotton) with the feces/urine suspension, placing it on the skin and covering it with an impermeable material. For example, this may be done by cutting away the adhesive border from a 37×20 mm Webril pad. The Webril pad will then be cut into quarters to obtain 1 cm^2 patches. Each patch will be saturated with 0.1 ml of the lipase-inhibiting agent solution and 0.375 ml of the urine/feces mixture. The control patch is simply 0.375 ml of the urine/feces mixture. Prior to application of test or control patches, each mouse is anesthetized by placement into a chamber containing ether. The test patch is then placed midline on the mouse back, towards the shoulder, and covered with Blenderm® (3M) tape in order to occlude the patch site. The mouse is next wrapped with Scanpor® tape (Norgeplaster A/S) to secure the patch. After 24 hrs., the initial patch is removed and a fresh patch of test substance or a fresh control is applied, as described above. After 24 hrs., the second patch is removed, thus giving a total occluded patch time of 48 hrs.
# (§5) Approximately 1 hr. after removal of the second patch, the test site skin condition is evaluated using the grading scales outlined in the following tables:
# (§6) Each animal is examined by two graders, at least one of whom is blind as to the treatments applied. Both graders' scores should be calculated for each of the above categories, as well as a primary Irritation Index equalling the sum of scores for each category.
# (§7) In Examples I-V, fecal material is mixed with a 2% urea solution at a weight:weight ratio of 1:4 feces:urea, and this homogenate is patched as described above in the Hairless Mouse model with 0.375 ml of this homogenate. The pure homogenate is patched as the control. Where a specific concentration of lipase-inhibiting agent is expressed, the feces/urea homogenate is patched in combination with 0.1 ml of a solution of the described lipase-inhibiting agent solution.
# lipase [2] = assay: Lipase activity of stool-free, urine-free pure lipase composition with lipase-inhibiting agent (Examples VI, VII); format: biochemical; design: LIPASE ACTIVITY: unit not given here; conditions: for % REDUCTION LIPASE ACTIVITY / LIPASE ACTIVITY: pure lipase composition; for inhibition of lipase: inability to provide the critical level of free metal ion Zn++
# Procedure: (§8) For example, the method of commerce available from Harleco® diagnostics utilizes the activity of lipase, i.e., the digestion of triglycerides to diglycerides and monoglycerides, glycerol and free fatty acids. After this digestion is allowed to proceed at the optimal buffered pH, the turbidity is measured spectrophotometrically at 400 nanometers.
# (§9) In Examples VI and VII, a stool-free and urine-free pure lipase composition of the expressed activity is patched in the Hairless Mouse model as described above. This is the Control. This lipase composition is patched in combination with 0.1 ml of the lipase-inhibiting agent solution at the concentration expressed.
# In this Example, a non-stool, no-urine pure lipase composition is patched in the hairless mouse model, and then in combination with a lipase-inhibiting agent at the indicated concentrations.
# lipase [3] = assay: Relative lipase activity of the feces/urea patch with lipase-inhibiting agent (Examples I, II, IV); format: biochemical
# Procedure: as §8, §7
# [4] = system: lipase-related skin irritation; assay: Hairless mouse patch test with pure lipase composition (Example VII); format: in vivo, hairless mice; conditions: 100 mM (ZnO, ZnCO3, Zn undecylenate patched as suspensions)
# From the text: as §1, §2, §3, §4, §5, §6
# as §9, with “expressed. […]” for “expressed.”
# [5] = background statement; cited from earlier work
# [6] = footnote to Example VII
# [7] = Example III, 100 mM, control 4.95 ± 0.45 (control lipase activity 100,000)
# [8] = Example VI, 50 mM, lipase control 40,320
# [9] = Example VI, 100 mM, lipase control 40,320
# [10] = Example I, 10 mM, 0.1 ml with 0.375 ml feces/urea homogenate, 48 hrs occluded, control 7.20 ± 0.75
# [11] = Example I, 25 mM, 0.1 ml with 0.375 ml feces/urea homogenate, 48 hrs occluded, control 7.20 ± 0.75
# [12] = Example I, 50 mM, 0.1 ml with 0.375 ml feces/urea homogenate, 48 hrs occluded, control 7.20 ± 0.75
# [13] = Example I, 100 mM, 0.1 ml with 0.375 ml feces/urea homogenate, 48 hrs occluded, control 7.20 ± 0.75
# [14] = Example I, 10 mM agent solution, control 6250
# [15] = Example I, 25 mM agent solution, control 6250
# [16] = Example I, 50 mM agent solution, control 6250
# [17] = Example I, 100 mM agent solution, control 6250
# [18] = Example IV, 10 mM, control 127,500
# [19] = Example IV, 25 mM, control 127,500
# [20] = Example IV, 50 mM, control 127,500
# [21] = Example IV, 100 mM, control 127,500
# [22] = Example V, 100 mM, control 4.45 ± 0.17
# [23] = Example VII, 100 mM (ZnO, ZnCO3, Zn undecylenate patched as suspensions), control 36,750
molecule,measurement,setting,value
"[Ca+2].[Cl-].[Cl-] [CaCl2, reference compound]",IRRITATION INDEX,[1]; [7],3.55 ± 1.10
"[Cl][Co][Cl] [CoCl2, cobalt chloride]",% REDUCTION LIPASE ACTIVITY,"lipase [2]; Example VI, 50 mM",41%
same,LIPASE ACTIVITY,lipase [2]; [8],"23,750"
same,% REDUCTION LIPASE ACTIVITY,"lipase [2]; Example VI, 100 mM",81%
same,LIPASE ACTIVITY,lipase [2]; [9],"7,750"
"O=S(=O)([O-])[O-].[Cu+2] [CuSO4, copper sulfate]",% REDUCTION LIPASE ACTIVITY,"lipase [2]; Example VI, 50 mM",54%
same,LIPASE ACTIVITY,lipase [2]; [8],"18,500"
same,% REDUCTION LIPASE ACTIVITY,"lipase [2]; Example VI, 100 mM",59%
same,LIPASE ACTIVITY,lipase [2]; [9],"16,500"
"O.O.O.O.O.O=S(=O)([O-])[O-].[Cu+2] [CuSO4.5H2 O, copper sulfate pentahydrate]",IRRITATION INDEX,[1]; [10],6.75 ± 1.42
same,IRRITATION INDEX,[1]; [11],5.35 ± 2.93
same,IRRITATION INDEX,[1]; [12],3.50 ± 3.08
same,IRRITATION INDEX,[1]; [13],5.50 ± 1.05
same,RELATIVE LIPASE ACTIVITY,lipase [3]; [14],4750
same,RELATIVE LIPASE ACTIVITY,lipase [3]; [15],2250
same,RELATIVE LIPASE ACTIVITY,lipase [3]; [16],750
same,RELATIVE LIPASE ACTIVITY,lipase [3]; [17],0
"O.O.O.O.O.O.[Cl-].[Cl-].[Cl-].[Fe+3] [FeCl3.6H2 O, iron(III)chloride hexahydrate]",RELATIVE LIPASE ACTIVITY,lipase [3]; [18],"177,500"
same,RELATIVE LIPASE ACTIVITY,lipase [3]; [19],"128,750"
same,RELATIVE LIPASE ACTIVITY,lipase [3]; [20],"111,350"
same,RELATIVE LIPASE ACTIVITY,lipase [3]; [21],6250
same,% REDUCTION LIPASE ACTIVITY,"lipase [2]; Example VI, 50 mM",99%
same,LIPASE ACTIVITY,lipase [2]; [8],500
same,% REDUCTION LIPASE ACTIVITY,"lipase [2]; Example VI, 100 mM",100%
same,LIPASE ACTIVITY,lipase [2]; [9],0
"[Cl][La]([Cl])[Cl] [LaCl3, lanthanum chloride]",IRRITATION INDEX,[1]; [7],0 ± 0
"[Cl][Sn][Cl] [SnCl2, tin(II)chloride]",IRRITATION INDEX,[1]; [22],0.50 ± 0.16
same,% REDUCTION LIPASE ACTIVITY,"lipase [2]; Example VI, 50 mM",93%
same,LIPASE ACTIVITY,lipase [2]; [8],"3,000"
same,% REDUCTION LIPASE ACTIVITY,"lipase [2]; Example VI, 100 mM",97%
same,LIPASE ACTIVITY,lipase [2]; [9],"1,250"
C=CCCCCCCCCC(=O)[O-].C=CCCCCCCCCC(=O)[O-].[Zn+2] [Zn undecylenate],% REDUCTION IN IRRITATION INDEX,[4],73%
same,LIPASE ACTIVITY,lipase [2]; [23],"10,080"
"O=C([O-])[O-].[Zn+2] [ZnCO3, zinc carbonate, reference compound]",% REDUCTION IN […],[4],5%
same,LIPASE ACTIVITY,lipase [2]; [23],"35,000"
same,inhibition of lipase,lipase [2],ineffective
"[Cl-].[Cl-].[Zn+2] [ZnCl2, zinc chloride]",% REDUCTION IN IRRITATION INDEX,[4],97%
same,IRRITATION INDEX,[1]; [10],6.05 ± 1.23
same,IRRITATION INDEX,[1]; [11],4.95 ± 1.36
same,IRRITATION INDEX,[1]; [12],0.80 ± 1.01
same,IRRITATION INDEX,[1]; [13],1.15 ± 0.97
same,IRRITATION INDEX,"[1]; Example II, 20 mM, control 6.67 ± 0.94",3.50 ± 2.44
same,IRRITATION INDEX,"[1]; Example II, 30 mM, control 6.67 ± 0.94",4.87 ± 1.37
same,IRRITATION INDEX,"[1]; Example II, 40 mM, control 6.67 ± 0.94",2.62 ± 1.86
same,IRRITATION INDEX,"[1]; Example II, 50 mM, control 6.67 ± 0.94",2.54 ± 1.78
same,IRRITATION INDEX,"[1]; Example II, 60 mM, control 6.67 ± 0.94",1.42 ± 1.62
same,IRRITATION INDEX,"[1]; Example II, 70 mM, control 6.67 ± 0.94",1.17 ± 1.01
same,IRRITATION INDEX,[1]; [7],0.55 ± 1.23
same,IRRITATION INDEX,"[1]; Example IV, 10 mM, control 6.15 ± 1.08",5.55 ± 0.95
same,IRRITATION INDEX,"[1]; Example IV, 25 mM, control 6.15 ± 1.08",0.50 ± 0.82
same,IRRITATION INDEX,"[1]; Example IV, 50 mM, control 6.15 ± 1.08",0.45 ± 0.64
same,IRRITATION INDEX,"[1]; Example IV, 100 mM, control 6.15 ± 1.08",1.75 ± 1.65
same,IRRITATION INDEX,[1]; [22],1.85 ± 0.61
same,RELATIVE LIPASE ACTIVITY,lipase [3]; [14],5000
same,RELATIVE LIPASE ACTIVITY,lipase [3]; [15],0
same,RELATIVE LIPASE ACTIVITY,lipase [3]; [16],0
same,RELATIVE LIPASE ACTIVITY,lipase [3]; [17],0
same,RELATIVE LIPASE ACTIVITY,"lipase [3]; Example II, 20 mM, control 6000",500
same,RELATIVE LIPASE ACTIVITY,"lipase [3]; Example II, 30 mM, control 6000",1250
same,RELATIVE LIPASE ACTIVITY,"lipase [3]; Example II, 40 mM, control 6000",0
same,RELATIVE LIPASE ACTIVITY,"lipase [3]; Example II, 50 mM, control 6000",0
same,RELATIVE LIPASE ACTIVITY,"lipase [3]; Example II, 60 mM, control 6000",0
same,RELATIVE LIPASE ACTIVITY,"lipase [3]; Example II, 70 mM, control 6000",0
same,RELATIVE LIPASE ACTIVITY,lipase [3]; [18],"72,500"
same,RELATIVE LIPASE ACTIVITY,lipase [3]; [19],0
same,RELATIVE LIPASE ACTIVITY,lipase [3]; [20],0
same,RELATIVE LIPASE ACTIVITY,lipase [3]; [21],0
same,% REDUCTION LIPASE ACTIVITY,"lipase [2]; Example VI, 50 mM",96%
same,LIPASE ACTIVITY,lipase [2]; [8],"1,500"
same,% REDUCTION LIPASE ACTIVITY,"lipase [2]; Example VI, 100 mM",98%
same,LIPASE ACTIVITY,lipase [2]; [9],750
same,LIPASE ACTIVITY,lipase [2]; [23],"1,250"
"[O]=[Zn] [ZnO, zinc oxide, reference compound]",% REDUCTION IN […],[4],10%
same,solubility in water,[5],almost totally insoluble
same,concentration of solution the salt is capable of forming,[6],20 µM
same,LIPASE ACTIVITY,lipase [2]; [23],"33,000"
same,inhibition of lipase,lipase [2],ineffective
Zinc glycerolate,solubility in water,[5],insoluble
